Test results taken from ChEMBL document CHEMBL1150765, “Clavatadine A, a natural product with selective recognition and irreversible inhibition of factor XIa” (J Med Chem, 2008).

Tests used:
[1] = molecular target: Coagulation factor IX (Homo sapiens) (UniProt P00740); assay: Inhibition of factor 9a at 222 uM
[2] = molecular target: Coagulation factor XI (Homo sapiens, UniProt P03951); assay: Inhibition of factor 11a
Sequence of Coagulation factor XI (P03951 19-387 limits assumed): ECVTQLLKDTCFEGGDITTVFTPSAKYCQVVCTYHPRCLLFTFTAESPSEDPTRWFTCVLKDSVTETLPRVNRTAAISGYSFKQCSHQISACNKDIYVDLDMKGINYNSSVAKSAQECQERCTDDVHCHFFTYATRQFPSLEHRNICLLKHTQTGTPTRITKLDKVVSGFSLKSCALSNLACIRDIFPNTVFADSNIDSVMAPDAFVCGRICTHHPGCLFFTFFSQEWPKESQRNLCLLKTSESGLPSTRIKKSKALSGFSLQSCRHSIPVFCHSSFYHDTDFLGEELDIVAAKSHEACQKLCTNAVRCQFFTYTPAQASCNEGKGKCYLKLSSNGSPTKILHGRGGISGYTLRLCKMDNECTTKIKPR
Sequence of Coagulation factor XI (P03951 388-625 limits assumed): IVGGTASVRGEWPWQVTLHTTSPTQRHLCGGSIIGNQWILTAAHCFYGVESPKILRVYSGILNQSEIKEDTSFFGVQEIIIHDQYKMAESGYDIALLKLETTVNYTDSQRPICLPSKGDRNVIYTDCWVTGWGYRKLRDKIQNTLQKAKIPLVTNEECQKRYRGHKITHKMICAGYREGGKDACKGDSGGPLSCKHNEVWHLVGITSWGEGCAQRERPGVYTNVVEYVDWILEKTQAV

Sequence of Coagulation factor IX (Homo sapiens) (P00740 47-191 limits assumed): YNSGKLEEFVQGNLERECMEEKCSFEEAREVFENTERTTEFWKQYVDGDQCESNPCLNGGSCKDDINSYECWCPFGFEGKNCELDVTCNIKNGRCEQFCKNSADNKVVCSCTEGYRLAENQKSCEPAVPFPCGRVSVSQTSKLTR
Sequence of Coagulation factor IX (Homo sapiens) (P00740 227-461 limits assumed): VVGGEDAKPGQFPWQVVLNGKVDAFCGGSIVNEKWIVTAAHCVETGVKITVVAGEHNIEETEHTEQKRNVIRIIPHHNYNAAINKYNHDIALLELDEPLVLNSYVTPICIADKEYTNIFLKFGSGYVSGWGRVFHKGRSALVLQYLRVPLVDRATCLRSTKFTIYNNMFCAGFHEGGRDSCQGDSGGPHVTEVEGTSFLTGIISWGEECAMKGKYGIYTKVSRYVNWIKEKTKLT

Which inhibition [1] does the source give for `N=C(N)NCCCCNC(=O)Oc1c(Br)cc(O)c(CC(=O)O)c1Br` [CLAVATADINE A] here?
Its inhibition is < 5%.

What about the IC50 [2] of the same compound?
The IC50 was 1.3 µM.

How did the inhibition [1] turn out when `N=C(N)NCCCCNC(=O)Oc1cc(Br)c(O)c(Br)c1CC(N)=O` [CLAVATADINE B] was run?
The inhibition was < 5%.

What about the IC50 [2] of the same compound?
The IC50 was 27 µM.
